Results reported in patent publication US11214594B2, “Antimicrobial peptide having synergistic antibacterial effect with antibiotics on multidrug resistant bacteria, and use thereof” (priority 2016, dated 2022).
Converted amounts (≈) assume the structure as drawn. Where a SMILES comes first, the peptide text is derived from it.

Columns and labels:
MDREC 1238 = assay type: cell-based, Escherichia coli
In short: (§1)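 Each strain is brought to 2×10^6 CFU in nutrient-sufficient Mueller-Hinton medium and dispensed into wells. Peptide solutions, stepwise diluted 2:1 in the same medium, are then added. The minimal concentration preventing growth gives the MIC.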

MDRPA 2002 = assay type: cell-based, Pseudomonas aeruginosa
In short: as §1

MDRPA 2003 = assay type: cell-based, Pseudomonas aeruginosa
In short: as §1

A. baumannii = assay: microbe, parasite or virus in culture; assay type: cell-based, Acinetobacter baumannii
In short: as §1

MDRAB 12035 [1] = assay: microbe, parasite or virus in culture; assay type: cell-based, Acinetobacter baumannii
In short: as §1

MDRAB 12036 = assay type: cell-based, Acinetobacter baumannii
In short: as §1

S. typhimurium = assay: microbe, parasite or virus in culture; assay type: cell-based, Salmonella typhimurium
In short: as §1

MDRST 8007 = assay: Minimal inhibitory concentration (MIC), single agent; assay type: cell-based, Salmonella typhimurium; conditions: agent alone
In short: as §1

S. aureus = assay: microbe, parasite or virus in culture; assay type: cell-based, Staphylococcus aureus
In short: as §1

MRSA 3114 = assay type: cell-based, Staphylococcus aureus; conditions: 3114
In short: as §1

MRSA 3126 = assay type: cell-based, Staphylococcus aureus; conditions: 3126
In short: as §1

MDRAB 12035 [2] = assay: MIC of antibiotic during combined treatment with antimicrobial peptide; assay type: cell-based, Acinetobacter baumannii
In short: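 Strains in MH medium at 2×10^6 CFU/ml were mixed with peptide diluted stepwise (2:1) from its MIC, then antibiotic dilutions in MH medium were added to give the antibiotic MIC. The reversed set-up, peptide titrated against fixed antibiotic, gave the peptide MIC.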

gram-negative bacteria = assay: MIC, summary statements for gram-negative bacteria; assay type: cell-based; conditions: most of the gram-negative bacteria
Protocol: For the antibacterial activity, a minimal inhibitory concentration (MIC) of a peptide in which fungus bodies were not split in an MH medium with sufficient nutrients was measured.
Specifically, the strains described in the following [Table 2] were purchased and diluted with an MH medium such that the number of bacteria was 2×10^6 colony-forming units (CFUs), 100 μl of each of the diluted strains was aliquoted into a 96-well microtiter plate, and then 100 μl of a peptide solution diluted with the MH medium (solution diluted stepwise at 2: 1) was added to each well.

[3] = test system: multi-drug resistant bacteria; assay: MIC, summary statements for multi-drug resistant bacteria; assay type: cell-based
In short: as §1

[4] = peptide treatment concentration 1 μg/ml
[5] = peptide treatment concentration 2 μg/ml
[6] = peptide treatment concentration 4 μg/ml
[7] = peptide treatment concentration 6 μg/ml
[8] = peptide treatment concentration 8 μg/ml
[9] = peptide treatment concentration 16 μg/ml
[10] = peptide treatment concentration 32 μg/ml
[11] = peptide treatment concentration 64 μg/ml

SMILES	Minimal inhibitory concentration MIC (MDREC 1238) [mg/L]	Minimal inhibitory concentration MIC (MDRPA 2002) [mg/L]	Minimal inhibitory concentration MIC (MDRPA 2003) [mg/L]	Minimal inhibitory concentration MIC (A. baumannii) [mg/L]	Minimal inhibitory concentration MIC (MDRAB 12035 [1]) [mg/L]	Peptide MIC, peptide alone (MDRAB 12035 [1]) [mg/L]	Minimal inhibitory concentration MIC (MDRAB 12036) [mg/L]	Minimal inhibitory concentration MIC (S. typhimurium) [mg/L]	Minimal inhibitory concentration MIC (MDRST 8007) [mg/L]	Minimal inhibitory concentration MIC (S. aureus) [mg/L]	Minimal inhibitory concentration MIC (MRSA 3114) [mg/L]	Minimal inhibitory concentration MIC (MRSA 3126) [mg/L]	Erythromycin MIC during combined treatment with peptide (MDRAB 12035 [2]; [4]) [mg/L]	Linezolid MIC during combined treatment with peptide (MDRAB 12035 [2]; [4]) [mg/L]	Vancomycin MIC during combined treatment with peptide (MDRAB 12035 [2]; [4]) [mg/L]	Erythromycin MIC during combined treatment with peptide (MDRAB 12035 [2]; [5]) [mg/L]	Linezolid MIC during combined treatment with peptide (MDRAB 12035 [2]; [5]) [mg/L]	Vancomycin MIC during combined treatment with peptide (MDRAB 12035 [2]; [5]) [mg/L]	Erythromycin MIC during combined treatment with peptide (MDRAB 12035 [2]; [6]) [mg/L]	Linezolid MIC during combined treatment with peptide (MDRAB 12035 [2]; [6]) [mg/L]	further results
CC[C@H](C)[C@H](NC(=O)[C@H](CCCCN)NC(=O)[C@H](Cc1c[nH]c2ccccc12)NC(=O)[C@@H](N)CCCNC(=N)N)C(=O)N[C@@H](Cc1ccccc1)C(=O)N[C@@H](CCCCN)C(=O)N[C@@H](CCCCN)C(=O)N[C@H](C(=O)N1CCC[C@H]1C(=O)N[C@@H](CCCCN)C(=O)N[C@@H](CC(C)C)C(=O)N[C@@H](CC(C)C)C(=O)N[C@@H](Cc1c[nH]cn1)C(=O)N[C@@H](CO)C(=O)N[C@@H](CC(C)C)C(=O)N[C@@H](CCCCN)C(=O)N[C@@H](CCCCN)C(=O)N[C@@H](Cc1ccccc1)C(N)=O)[C@@H](C)CC [PapMA-8, RWK IFK KIP KLL HSL KKF-NH2] (H-RWKIFKKIPKLLHSLKKF-NH2; N-terminus assumed)	64 (≈ 27.7 µM)	16 (≈ 6.93 µM)	16 (≈ 6.93 µM)	32 (≈ 13.9 µM)	64 (≈ 27.7 µM)	64	64 (≈ 27.7 µM)	32 (≈ 13.9 µM)	64 (≈ 27.7 µM)	>128	>128	>128	32	>128	>128	32	>128	>128	16	64	Peptide MIC, peptide alone (A. baumannii): 32 mg/L; Vancomycin MIC during combined treatment with peptide (MDRAB 12035 [2]; [6]): 64 mg/L; Erythromycin MIC during combined treatment with peptide (MDRAB 12035 [2]; [7]): 8 mg/L; Linezolid MIC during combined treatment with peptide (MDRAB 12035 [2]; [7]): 32 mg/L; Vancomycin MIC during combined treatment with peptide (MDRAB 12035 [2]; [7]): 32 mg/L; Erythromycin MIC during combined treatment with peptide (MDRAB 12035 [2]; [8]): 4 mg/L; Linezolid MIC during combined treatment with peptide (MDRAB 12035 [2]; [8]): 16 mg/L; Vancomycin MIC during combined treatment with peptide (MDRAB 12035 [2]; [8]): 8 mg/L; Erythromycin MIC during combined treatment with peptide (MDRAB 12035 [2]; [9]): 2 mg/L; Linezolid MIC during combined treatment with peptide (MDRAB 12035 [2]; [9]): 4 mg/L; Vancomycin MIC during combined treatment with peptide (MDRAB 12035 [2]; [9]): 4 mg/L; Erythromycin MIC during combined treatment with peptide (MDRAB 12035 [2]; [10]): 1 mg/L; Linezolid MIC during combined treatment with peptide (MDRAB 12035 [2]; [10]): 2 mg/L; Vancomycin MIC during combined treatment with peptide (MDRAB 12035 [2]; [10]): 2 mg/L; Erythromycin MIC during combined treatment with peptide (MDRAB 12035 [2]; [11]): 0 mg/L; Linezolid MIC during combined treatment with peptide (MDRAB 12035 [2]; [11]): 0 mg/L; Vancomycin MIC during combined treatment with peptide (MDRAB 12035 [2]; [11]): 0 mg/L; Antibacterial activity relative to PapMA-1, PapMA-2, PapMA-3 and PapMA-4 (gram-negative bacteria): same or higher
CC[C@H](C)[C@H](NC(=O)[C@H](CCCCN)NC(=O)[C@H](Cc1c[nH]c2ccccc12)NC(=O)[C@@H](N)CCCNC(=N)N)C(=O)N[C@@H](Cc1ccccc1)C(=O)N[C@@H](CCCCN)C(=O)N[C@@H](CCCCN)C(=O)N[C@H](C(=O)N1CCC[C@H]1C(=O)N[C@@H](CCCCN)C(=O)N[C@@H](CC(C)C)C(=O)N[C@@H](CC(C)C)C(=O)N[C@@H](Cc1c[nH]cn1)C(=O)N[C@@H](CCC(=O)O)C(=O)N[C@@H](Cc1ccccc1)C(=O)N[C@@H](CCCCN)C(=O)N[C@@H](CCCCN)C(=O)N[C@@H](Cc1ccccc1)C(N)=O)[C@@H](C)CC [PapMA-12, RWK IFK KIP KLL HEF KKF-NH2] (H-RWKIFKKIPKLLHEFKKF-NH2; N-terminus assumed)	16 (≈ 6.71 µM)	64 (≈ 26.8 µM)	64 (≈ 26.8 µM)	8 (≈ 3.35 µM)	8 (≈ 3.35 µM)	8	16 (≈ 6.71 µM)	16 (≈ 6.71 µM)	16 (≈ 6.71 µM)	>128	>128	>128	16	128	128	8	64	64	2	16	Antibacterial activity relative to PapMA-1 (A. baumannii; A. baumannii and S. typhimurium): at least twice as high; Vancomycin MIC during combined treatment with peptide (MDRAB 12035 [2]; [6]): 16 mg/L; Erythromycin MIC during combined treatment with peptide (MDRAB 12035 [2]; [7]): 1 mg/L; Linezolid MIC during combined treatment with peptide (MDRAB 12035 [2]; [7]): 8 mg/L; Vancomycin MIC during combined treatment with peptide (MDRAB 12035 [2]; [7]): 4 mg/L; Erythromycin MIC during combined treatment with peptide (MDRAB 12035 [2]; [8]): 0 mg/L; Linezolid MIC during combined treatment with peptide (MDRAB 12035 [2]; [8]): 0 mg/L; Vancomycin MIC during combined treatment with peptide (MDRAB 12035 [2]; [8]): 0 mg/L; Erythromycin MIC during combined treatment with peptide (MDRAB 12035 [2]; [9]): 0 mg/L; Linezolid MIC during combined treatment with peptide (MDRAB 12035 [2]; [9]): 0 mg/L; Vancomycin MIC during combined treatment with peptide (MDRAB 12035 [2]; [9]): 0 mg/L; Erythromycin MIC during combined treatment with peptide (MDRAB 12035 [2]; [10]): 0 mg/L; Linezolid MIC during combined treatment with peptide (MDRAB 12035 [2]; [10]): 0 mg/L; Vancomycin MIC during combined treatment with peptide (MDRAB 12035 [2]; [10]): 0 mg/L; Erythromycin MIC during combined treatment with peptide (MDRAB 12035 [2]; [11]): 0 mg/L; Linezolid MIC during combined treatment with peptide (MDRAB 12035 [2]; [11]): 0 mg/L; Vancomycin MIC during combined treatment with peptide (MDRAB 12035 [2]; [11]): 0 mg/L; Antibacterial activity relative to PapMA-1 [3]: twice to four times higher
